The text below walks through data of US9636418B2 (priority 2013, dated 2017).

Test in all cases: cell-based
Experiment [1] addresses hNav1.5 (Homo sapiens, UniProt Q14524). The following applies: IonWorks Quattro; read-out: IC50 Nav1.5. For orientation: Patch clamp records ionic current or voltage across a cell membrane.
The target of experiment [2] is hNav1.4 (Homo sapiens, UniProt P35499). As to conditions: IonWorks Quattro; read-out: IC50 Nav1.4.
For experiment [3], the target named is hNav1.3 (Homo sapiens, UniProt Q9NY46). As to conditions: IonWorks Quattro; read-out: IC50 Nav1.3.
The target of experiment [4] is hNav1.7 (Homo sapiens, UniProt Q15858). The following applies: IonWorks Quattro; read-out: IC50 Nav1.7.
Sequence of hNav1.7 (Q15858 whole entry): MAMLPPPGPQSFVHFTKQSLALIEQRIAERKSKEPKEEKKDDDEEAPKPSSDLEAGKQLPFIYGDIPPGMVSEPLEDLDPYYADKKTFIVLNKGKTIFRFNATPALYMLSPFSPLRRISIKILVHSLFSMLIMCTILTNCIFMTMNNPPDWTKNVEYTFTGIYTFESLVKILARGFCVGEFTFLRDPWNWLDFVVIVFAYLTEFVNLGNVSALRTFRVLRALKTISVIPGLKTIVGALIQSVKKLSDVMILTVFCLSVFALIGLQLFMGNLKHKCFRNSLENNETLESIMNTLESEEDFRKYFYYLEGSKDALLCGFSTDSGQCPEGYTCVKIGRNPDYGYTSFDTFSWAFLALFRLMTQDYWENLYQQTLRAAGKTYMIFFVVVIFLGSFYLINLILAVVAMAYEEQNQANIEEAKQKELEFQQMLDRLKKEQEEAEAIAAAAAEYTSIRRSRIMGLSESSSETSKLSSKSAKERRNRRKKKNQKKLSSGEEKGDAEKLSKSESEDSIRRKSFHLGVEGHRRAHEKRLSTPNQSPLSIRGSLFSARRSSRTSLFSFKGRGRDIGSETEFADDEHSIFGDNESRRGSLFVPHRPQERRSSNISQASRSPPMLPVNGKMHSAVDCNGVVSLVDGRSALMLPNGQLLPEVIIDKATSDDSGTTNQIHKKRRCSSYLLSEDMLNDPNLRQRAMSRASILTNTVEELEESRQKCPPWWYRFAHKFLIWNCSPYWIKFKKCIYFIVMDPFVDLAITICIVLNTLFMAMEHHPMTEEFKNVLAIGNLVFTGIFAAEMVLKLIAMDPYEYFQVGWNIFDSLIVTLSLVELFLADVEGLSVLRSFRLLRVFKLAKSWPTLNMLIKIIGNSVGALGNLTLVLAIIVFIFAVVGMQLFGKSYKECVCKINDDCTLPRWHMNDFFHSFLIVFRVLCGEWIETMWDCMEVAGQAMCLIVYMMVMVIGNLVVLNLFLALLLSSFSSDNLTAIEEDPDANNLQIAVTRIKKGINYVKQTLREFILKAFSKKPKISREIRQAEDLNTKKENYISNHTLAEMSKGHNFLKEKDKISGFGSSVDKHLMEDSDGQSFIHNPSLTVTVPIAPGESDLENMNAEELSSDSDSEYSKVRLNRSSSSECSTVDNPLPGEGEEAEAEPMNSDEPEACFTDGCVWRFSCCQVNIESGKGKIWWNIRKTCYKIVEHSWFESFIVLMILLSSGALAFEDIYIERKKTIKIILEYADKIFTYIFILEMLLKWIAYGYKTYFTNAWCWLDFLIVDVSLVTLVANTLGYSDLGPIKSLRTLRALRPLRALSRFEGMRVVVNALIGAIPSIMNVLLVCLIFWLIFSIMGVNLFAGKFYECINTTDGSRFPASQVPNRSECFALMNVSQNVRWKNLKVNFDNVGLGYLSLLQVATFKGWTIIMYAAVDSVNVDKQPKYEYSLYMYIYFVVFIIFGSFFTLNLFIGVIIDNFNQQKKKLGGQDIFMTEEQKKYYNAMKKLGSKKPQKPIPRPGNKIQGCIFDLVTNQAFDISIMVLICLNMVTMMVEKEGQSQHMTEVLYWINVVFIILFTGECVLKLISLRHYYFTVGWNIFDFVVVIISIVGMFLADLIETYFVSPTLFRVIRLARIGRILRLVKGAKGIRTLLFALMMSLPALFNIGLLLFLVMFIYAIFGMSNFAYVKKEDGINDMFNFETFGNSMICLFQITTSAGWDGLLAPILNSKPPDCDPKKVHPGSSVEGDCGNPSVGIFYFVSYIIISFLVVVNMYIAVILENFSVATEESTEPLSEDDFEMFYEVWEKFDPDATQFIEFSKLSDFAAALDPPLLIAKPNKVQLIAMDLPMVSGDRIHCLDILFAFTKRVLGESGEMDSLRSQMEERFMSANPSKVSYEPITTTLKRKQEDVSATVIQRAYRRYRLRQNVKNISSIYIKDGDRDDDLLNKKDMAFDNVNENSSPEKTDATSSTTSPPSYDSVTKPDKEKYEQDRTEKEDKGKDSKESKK

Each structure is given as a SMILES string. Where “and” joins values, the source holds several entries; their conditions need not be identical. Equal values may be shown once. Bounds are passed on as bounds.

Sequence of hNav1.5 (Q14524 whole entry): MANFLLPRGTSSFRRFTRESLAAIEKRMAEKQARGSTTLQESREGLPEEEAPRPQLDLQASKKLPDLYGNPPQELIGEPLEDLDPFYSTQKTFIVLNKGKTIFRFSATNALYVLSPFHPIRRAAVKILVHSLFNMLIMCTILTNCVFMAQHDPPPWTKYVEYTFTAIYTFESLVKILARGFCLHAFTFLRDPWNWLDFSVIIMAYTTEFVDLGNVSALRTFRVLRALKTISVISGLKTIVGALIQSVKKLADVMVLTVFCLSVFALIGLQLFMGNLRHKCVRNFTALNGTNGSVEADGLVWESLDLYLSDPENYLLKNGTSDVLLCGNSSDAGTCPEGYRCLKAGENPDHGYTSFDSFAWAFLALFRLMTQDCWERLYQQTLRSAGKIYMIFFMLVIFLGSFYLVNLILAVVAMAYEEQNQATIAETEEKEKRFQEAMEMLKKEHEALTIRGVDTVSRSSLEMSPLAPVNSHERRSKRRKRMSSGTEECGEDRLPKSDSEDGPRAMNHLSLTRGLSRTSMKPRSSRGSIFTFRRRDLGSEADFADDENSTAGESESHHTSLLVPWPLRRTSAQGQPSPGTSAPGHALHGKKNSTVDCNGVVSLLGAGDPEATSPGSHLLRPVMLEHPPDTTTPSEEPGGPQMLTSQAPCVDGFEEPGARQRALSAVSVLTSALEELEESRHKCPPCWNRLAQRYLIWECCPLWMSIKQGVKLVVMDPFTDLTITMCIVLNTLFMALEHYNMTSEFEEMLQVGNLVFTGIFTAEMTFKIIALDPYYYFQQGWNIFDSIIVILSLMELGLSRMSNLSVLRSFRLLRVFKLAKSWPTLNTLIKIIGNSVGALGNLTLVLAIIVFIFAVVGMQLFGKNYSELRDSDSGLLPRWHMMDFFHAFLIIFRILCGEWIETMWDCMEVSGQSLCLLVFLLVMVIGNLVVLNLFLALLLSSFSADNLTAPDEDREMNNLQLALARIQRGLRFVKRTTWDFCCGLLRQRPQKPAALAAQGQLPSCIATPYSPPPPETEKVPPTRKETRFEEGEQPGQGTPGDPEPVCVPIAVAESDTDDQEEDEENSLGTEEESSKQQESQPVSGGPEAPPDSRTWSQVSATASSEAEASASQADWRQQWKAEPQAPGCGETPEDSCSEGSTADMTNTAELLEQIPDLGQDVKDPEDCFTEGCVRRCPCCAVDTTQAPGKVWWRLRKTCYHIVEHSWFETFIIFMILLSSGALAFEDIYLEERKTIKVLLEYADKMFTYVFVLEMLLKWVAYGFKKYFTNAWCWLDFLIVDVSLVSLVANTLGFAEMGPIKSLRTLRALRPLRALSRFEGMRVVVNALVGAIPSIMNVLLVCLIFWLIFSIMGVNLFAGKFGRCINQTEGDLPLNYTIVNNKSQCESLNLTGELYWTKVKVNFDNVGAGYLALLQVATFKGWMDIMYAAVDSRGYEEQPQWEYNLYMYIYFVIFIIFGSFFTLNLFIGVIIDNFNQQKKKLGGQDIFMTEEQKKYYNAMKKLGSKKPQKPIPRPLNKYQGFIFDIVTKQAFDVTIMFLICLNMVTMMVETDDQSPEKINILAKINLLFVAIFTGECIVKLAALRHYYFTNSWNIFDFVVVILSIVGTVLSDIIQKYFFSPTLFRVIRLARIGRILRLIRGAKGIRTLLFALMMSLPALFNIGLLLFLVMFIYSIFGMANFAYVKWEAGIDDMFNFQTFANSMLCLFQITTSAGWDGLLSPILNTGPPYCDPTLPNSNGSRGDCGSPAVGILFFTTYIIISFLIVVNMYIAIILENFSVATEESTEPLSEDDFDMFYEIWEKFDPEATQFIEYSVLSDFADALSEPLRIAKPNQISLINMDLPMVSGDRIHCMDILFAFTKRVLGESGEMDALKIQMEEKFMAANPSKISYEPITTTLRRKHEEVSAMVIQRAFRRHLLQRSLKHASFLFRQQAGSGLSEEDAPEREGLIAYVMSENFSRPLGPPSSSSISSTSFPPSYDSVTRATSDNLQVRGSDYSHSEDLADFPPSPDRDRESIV

What is called IC50 is the concentration needed to halve the response being measured. `CC[C@H](C)[C@H](NC(=O)[C@H](Cc1ccc(O)cc1)NC(=O)[C@H](CCCCN)NC(=O)[C@H](CCCNC(=N)N)NC(=O)[C@@H]1CSSC[C@@H]2NC(=O)[C@H](C)NC(=O)[C@H](CCCNC(=N)N)NC(=O)[C@H](CCCCN)NC(=O)[C@H](CO)NC(=O)[C@H](CC(=O)O)NC(=O)[C@@H]3CSSC[C@H](NC(=O)[C@H](CCC(=O)O)NC(=O)[C@H](CC(C)C)NC(=O)CNC(=O)[C@H](CCC(=O)O)NC(=O)[C@H](CSSC[C@H](NC(=O)[C@@H](N)Cc4ccc(O)cc4)C(=O)N[C@@H](CCC(N)=O)C(=O)N[C@@H](CCCCN)C(=O)N[C@@H](Cc4ccc(O)cc4)C(=O)N[C@@H](CCSC)C(=O)N[C@@H](Cc4c[nH]c5ccccc45)C(=O)N[C@@H]([C@@H](C)O)C(=O)N3)NC2=O)C(=O)N[C@@H](CCCCN)C(=O)N[C@@H](CC(C)C)C(=O)N[C@@H](Cc2c[nH]c3ccccc23)C(=O)N1)C(N)=O` [compound 194]: the IC50 was greater than 5 µM in experiment [1]; greater than 5 µM in experiment [2]; greater than 5 µM in experiment [3]; 0.91 µM and 2.5 µM in experiment [4].
Regarding `CC[C@H](C)[C@H](NC(=O)[C@H](Cc1ccc(O)cc1)NC(=O)[C@H](CCCCN)NC(=O)[C@H](CCCNC(=N)N)NC(=O)[C@@H]1CSSC[C@@H]2NC(=O)[C@H](C)NC(=O)[C@H](CCCNC(=N)N)NC(=O)[C@H](CCCCN)NC(=O)[C@H](CO)NC(=O)[C@H](CC(=O)O)NC(=O)[C@@H]3CSSC[C@H](NC(=O)[C@H](CCC(=O)O)NC(=O)[C@H](CC(C)C)NC(=O)CNC(=O)[C@H](CCC(=O)O)NC(=O)[C@H](CSSC[C@H](NC(=O)[C@@H](N)Cc4ccc(O)cc4)C(=O)N[C@@H](CCC(N)=O)C(=O)N[C@@H](CCCCN)C(=O)N[C@@H](C(C)C)C(=O)N[C@@H](CCSC)C(=O)N[C@@H](Cc4c[nH]c5ccccc45)C(=O)N[C@@H]([C@@H](C)O)C(=O)N3)NC2=O)C(=O)N[C@@H](CCCCN)C(=O)N[C@@H](CC(C)C)C(=O)N[C@@H](Cc2c[nH]c3ccccc23)C(=O)N1)C(N)=O` [compound 195], the IC50 in experiment [1] was greater than 5 µM; in experiment [2], greater than 5 µM; in experiment [3], greater than 5 µM; in experiment [4], 3.8 µM.
For `CC[C@H](C)[C@H](NC(=O)[C@H](Cc1ccc(O)cc1)NC(=O)[C@H](CCCCN)NC(=O)[C@H](CCCNC(=N)N)NC(=O)[C@@H]1CSSC[C@@H]2NC(=O)[C@H](C)NC(=O)[C@H](CCCNC(=N)N)NC(=O)[C@H](CCCCN)NC(=O)[C@H](CO)NC(=O)[C@H](CC(=O)O)NC(=O)[C@@H]3CSSC[C@H](NC(=O)[C@H](CCC(=O)O)NC(=O)[C@H](CC(C)C)NC(=O)CNC(=O)[C@H](CCC(=O)O)NC(=O)[C@H](CSSC[C@H](NC(=O)[C@@H](N)Cc4ccc(O)cc4)C(=O)N[C@@H](CCC(N)=O)C(=O)N[C@@H](CCCCN)C(=O)N[C@@H](CC(C)C)C(=O)N[C@@H](CCSC)C(=O)N[C@@H](Cc4c[nH]c5ccccc45)C(=O)N[C@@H]([C@@H](C)O)C(=O)N3)NC2=O)C(=O)N[C@@H](CCCCN)C(=O)N[C@@H](CC(C)C)C(=O)N[C@@H](Cc2c[nH]c3ccccc23)C(=O)N1)C(N)=O` [compound 196], the IC50 in experiment [1], in experiment [2], in experiment [3] and in experiment [4] was greater than 5 µM throughout.
For the compound `CCC[C@@H]1NC(=O)[C@H](CCCCN)NC(=O)[C@H](CCC(N)=O)NC(=O)[C@@H](NC(=O)[C@@H](N)Cc2ccc(O)cc2)CSSC[C@@H]2NC(=O)[C@@H]3CSSC[C@@H](C(=O)N[C@@H](CCCNC(=N)N)C(=O)N[C@@H](CCCCN)C(=O)N[C@@H](Cc4ccc(O)cc4)C(=O)N[C@H](C(N)=O)[C@@H](C)CC)NC(=O)[C@H](Cc4c[nH]c5ccccc45)NC(=O)[C@H](CC(C)C)NC(=O)[C@H](CCCCN)NC(=O)[C@H](CSSC[C@H](NC(=O)[C@H]([C@@H](C)O)NC(=O)[C@H](Cc4c[nH]c5ccccc45)NC(=O)[C@H](CCSC)NC1=O)C(=O)N[C@@H](CC(=O)O)C(=O)N[C@@H](CO)C(=O)N[C@@H](CCCCN)C(=O)N[C@@H](CCCNC(=N)N)C(=O)N[C@@H](C)C(=O)N3)NC(=O)[C@H](CCC(=O)O)NC(=O)[C@H](CC(C)C)NC(=O)CNC(=O)[C@H](CCC(=O)O)NC2=O` [compound 198], the IC50 in experiment [1] is greater than 5 µM; in experiment [2] it was greater than 5 µM; in experiment [3], greater than 5 µM; in experiment [4] it was 3.3 µM.
Take `CC[C@H](C)[C@H](NC(=O)[C@H](Cc1ccc(O)cc1)NC(=O)[C@H](CCCCN)NC(=O)[C@H](CCCNC(=N)N)NC(=O)[C@@H]1CSSC[C@@H]2NC(=O)[C@H](C)NC(=O)[C@H](CCCNC(=N)N)NC(=O)[C@H](CCCCN)NC(=O)[C@H](CO)NC(=O)[C@H](CC(=O)O)NC(=O)[C@@H]3CSSC[C@H](NC(=O)[C@H](CCC(=O)O)NC(=O)[C@H](CC(C)C)NC(=O)CNC(=O)[C@H](CCC(=O)O)NC(=O)[C@H](CSSC[C@H](NC(=O)[C@@H](N)Cc4ccc(O)cc4)C(=O)N[C@@H](CCC(N)=O)C(=O)N[C@@H](CCCCN)C(=O)N[C@@H](CCCNC(N)=O)C(=O)N[C@@H](CCSC)C(=O)N[C@@H](Cc4c[nH]c5ccccc45)C(=O)N[C@@H]([C@@H](C)O)C(=O)N3)NC2=O)C(=O)N[C@@H](CCCCN)C(=O)N[C@@H](CC(C)C)C(=O)N[C@@H](Cc2c[nH]c3ccccc23)C(=O)N1)C(N)=O` [compound 199]: the IC50 in experiment [1], in experiment [2], in experiment [3] and in experiment [4] was greater than 5 µM each time.
In the case of `CC[C@H](C)[C@H](NC(=O)[C@H](Cc1ccc(O)cc1)NC(=O)[C@H](CCCCN)NC(=O)[C@H](CCCNC(=N)N)NC(=O)[C@@H]1CSSC[C@@H]2NC(=O)[C@H](C)NC(=O)[C@H](CCCNC(=N)N)NC(=O)[C@H](CCCCN)NC(=O)[C@H](CO)NC(=O)[C@H](CC(=O)O)NC(=O)[C@@H]3CSSC[C@H](NC(=O)[C@H](CCC(=O)O)NC(=O)[C@H](CC(C)C)NC(=O)CNC(=O)[C@H](CCC(=O)O)NC(=O)[C@H](CSSC[C@H](NC(=O)[C@@H](N)Cc4ccc(O)cc4)C(=O)N[C@@H](CCC(N)=O)C(=O)N[C@@H](CCCCN)C(=O)N[C@@H](CCCCN)C(=O)N[C@@H](CCSC)C(=O)N[C@@H](Cc4c[nH]c5ccccc45)C(=O)N[C@@H]([C@@H](C)O)C(=O)N3)NC2=O)C(=O)N[C@@H](CCCCN)C(=O)N[C@@H](CC(C)C)C(=O)N[C@@H](Cc2c[nH]c3ccccc23)C(=O)N1)C(N)=O` [compound 200], the IC50 in experiment [1], in experiment [2], in experiment [3] and in experiment [4] was greater than 5 µM in each case.
On to `CC[C@H](C)[C@H](NC(=O)[C@H](Cc1ccc(O)cc1)NC(=O)[C@H](CCCCN)NC(=O)[C@H](CCCNC(=N)N)NC(=O)[C@@H]1CSSC[C@@H]2NC(=O)[C@H](C)NC(=O)[C@H](CCCNC(=N)N)NC(=O)[C@H](CCCCN)NC(=O)[C@H](CO)NC(=O)[C@H](CC(=O)O)NC(=O)[C@@H]3CSSC[C@H](NC(=O)[C@H](CCC(=O)O)NC(=O)[C@H](CC(C)C)NC(=O)CNC(=O)[C@H](CCC(=O)O)NC(=O)[C@H](CSSC[C@H](NC(=O)[C@@H](N)Cc4ccc(O)cc4)C(=O)N[C@@H](CCC(N)=O)C(=O)N[C@@H](CCCCN)C(=O)N[C@@H](CC(N)=O)C(=O)N[C@@H](CCSC)C(=O)N[C@@H](Cc4c[nH]c5ccccc45)C(=O)N[C@@H]([C@@H](C)O)C(=O)N3)NC2=O)C(=O)N[C@@H](CCCCN)C(=O)N[C@@H](CC(C)C)C(=O)N[C@@H](Cc2c[nH]c3ccccc23)C(=O)N1)C(N)=O` [compound 201], for which the IC50 was greater than 5 µM in experiment [1]; greater than 5 µM in experiment [2]; greater than 5 µM in experiment [3]; 4.2 µM and > 5 µM in experiment [4].
With `CC[C@H](C)[C@H](NC(=O)[C@H](Cc1ccc(O)cc1)NC(=O)[C@H](CCCCN)NC(=O)[C@H](CCCNC(=N)N)NC(=O)[C@@H]1CSSC[C@@H]2NC(=O)[C@H](C)NC(=O)[C@H](CCCNC(=N)N)NC(=O)[C@H](CCCCN)NC(=O)[C@H](CO)NC(=O)[C@H](CC(=O)O)NC(=O)[C@@H]3CSSC[C@H](NC(=O)[C@H](CCC(=O)O)NC(=O)[C@H](CC(C)C)NC(=O)CNC(=O)[C@H](CCC(=O)O)NC(=O)[C@H](CSSC[C@H](NC(=O)[C@@H](N)Cc4ccc(O)cc4)C(=O)N[C@@H](CCC(N)=O)C(=O)N[C@@H](CCCCN)C(=O)N[C@@H](CCC(=O)O)C(=O)N[C@@H](CCSC)C(=O)N[C@@H](Cc4c[nH]c5ccccc45)C(=O)N[C@@H]([C@@H](C)O)C(=O)N3)NC2=O)C(=O)N[C@@H](CCCCN)C(=O)N[C@@H](CC(C)C)C(=O)N[C@@H](Cc2c[nH]c3ccccc23)C(=O)N1)C(N)=O` [compound 203], the IC50 in experiment [1], in experiment [2], in experiment [3] and in experiment [4] was greater than 7 µM each time.
As to `CCC[C@@H]1NC(=O)[C@H](CCSC)NC(=O)[C@H](Cc2c[nH]c3ccccc23)NC(=O)[C@H](CCCCN)NC(=O)[C@H](CCC(N)=O)NC(=O)[C@@H](NC(=O)[C@@H](N)Cc2ccc(O)cc2)CSSC[C@@H]2NC(=O)[C@@H]3CSSC[C@@H](C(=O)N[C@@H](CCCNC(=N)N)C(=O)N[C@@H](CCCCN)C(=O)N[C@@H](Cc4ccc(O)cc4)C(=O)N[C@H](C(N)=O)[C@@H](C)CC)NC(=O)[C@H](Cc4c[nH]c5ccccc45)NC(=O)[C@H](CC(C)C)NC(=O)[C@H](CCCCN)NC(=O)[C@H](CSSC[C@H](NC(=O)[C@H]([C@@H](C)O)NC1=O)C(=O)N[C@@H](CC(=O)O)C(=O)N[C@@H](CO)C(=O)N[C@@H](CCCCN)C(=O)N[C@@H](CCCNC(=N)N)C(=O)N[C@@H](C)C(=O)N3)NC(=O)[C@H](CCC(=O)O)NC(=O)[C@H](CC(C)C)NC(=O)CNC(=O)[C@H](CCC(=O)O)NC2=O` [compound 212], the concentration for half-maximal inhibition (IC50) in experiment [1] is greater than 7 µM; in experiment [2] it was greater than 7 µM; in experiment [3], greater than 7 µM; in experiment [4], 4.5 µM.
